{"source": "patent US10098898B1", "about": "“Release stable mesalamine dosage forms” (Handa Pharmaceuticals, LLC, priority 2017, dated 2018)", "origin": "cited, not measured here", "conditions": "1% aqueous solution", "data": [{"compound": "O=P([O-])([O-])O.[Na+].[Na+]", "note": "[disodium hydrogen phosphate]", "values": [{"measurement": "pH", "value": "about 9.1"}]}]}
